In PubChem BioAssay (NCI) one finds TGI data, which are given here for 15 compounds.

Assay in all cases: growth of human tumour cells (NCI), 48 h
Assay [1] concerns SW-620 colon.
Assay [2] concerns UACC-257 melanoma.
Assay [3] deals with COLO 205 colon.
Assay [4] has as its system SF-268 CNS.
The test system of assay [5] is NCI-H522 lung.
Assay [6] relates to OVCAR-5 ovarian.
The test system of assay [7] is SK-MEL-28 melanoma.
Assay [8] relates to SK-MEL-5 melanoma.
Assay [9] relates to TK-10 renal.
The test system of assay [10] is IGROV1 ovarian.
For assay [11], the system named is OVCAR-4 ovarian.
In assay [12] the test system is CAKI-1 renal.
Assay [13] deals with HCT-15 colon.
The subject of assay [14] is LOX IMVI melanoma.
For assay [15], the system named is A498 renal.
Assay [16] relates to MDA-MB-435.
For assay [17], the system named is NCI-H226 lung.
Assay [18] deals with T-47D breast.
Assay [19] relates to EKVX NSCLC.

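Five concentrations, 48 hours, 96-well plates. TGI denotes the concentration required for complete inhibition of growth.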

Consider `COc1cc(C2=C(c3cc(OC)c4ccccc4c3OC)C(=O)c3ccccc3C2=O)c(OC)c2ccccc12`, for which the TGI in [1], in assay [2], in assay [3], in [4], in assay [5] and in assay [6] was over 100 µM each time. Also, the TGI in assay [7], in assay [8], in assay [9], in [10], in [11] and in [12] was over 100 µM each time. Moreover, the TGI in assay [13], in [14], in [15], in assay [16], in assay [17] and in assay [18] was over 100 µM in each case. The TGI in [19] is over 100 µM.
Take `CC1CCC2(O)C3(C)CC4(O)OC2(C1O)C1(O)C3(O)C(OC(=O)c2ccc[nH]2)C(O)(C(C)C)C41C` (centres undefined): the TGI in assay [1] is over 100 µM; in assay [2] it was over 100 µM; in assay [3] it was over 100 µM; in assay [4], over 31.6 µM; in assay [5], over 100 µM; in [6], over 100 µM. Moreover, the TGI in [7], in [8], in assay [9], in assay [10], in [11] and in assay [12] was over 100 µM in each case. Further, the TGI in assay [13], in assay [14], in assay [15], in assay [16], in assay [17] and in assay [18] was over 100 µM in each case. The TGI in assay [19] was over 100 µM.
For `COc1ccc2nc3cc(Cl)ccc3c(NCCNC(=O)Cn3c(=O)n(C)c(=O)c4c3nc3c(c(=O)n(C)c(=O)n3C)[n+]4[O-])c2c1`, the TGI in assay [1] is over 71.7 µM; in assay [2], over 55.9 µM; in [3] it was over 100 µM; in assay [4], 60.8 µM; in assay [5], over 74.6 µM; in [6], over 100 µM. Besides, the TGI in assay [7] was over 31.6 µM; in assay [8], over 100 µM; in assay [9], over 56.1 µM; in assay [10], 61.6 µM; in assay [11] it was over 100 µM; in assay [12], over 100 µM. Moreover, the TGI in assay [13] is over 100 µM; in assay [14], over 100 µM; in assay [15] it was 98.8 µM; in assay [16], over 69.5 µM; in [17], over 80.1 µM; in assay [18] it was over 100 µM. In addition, the TGI in assay [19] was over 100 µM.
Regarding `O=C1Nc2ccccc2C1=Nc1cccc2ncccc12`, the TGI in assay [1], in assay [2], in [3], in assay [4], in assay [5] and in assay [6] was over 100 µM each time. Further, the TGI in assay [7], in assay [8], in [9], in [10], in assay [11] and in assay [12] was over 100 µM each time. In addition, the TGI in assay [13] is over 100 µM; in [14], over 100 µM; in assay [15], over 100 µM; in assay [16], 42.3 µM; in assay [17], over 100 µM; in assay [18], over 100 µM. The TGI in assay [19] was determined as 85.6 µM.
For `O=c1ccn2n1Cc1ccccc1C2`, the TGI in assay [1], in assay [2], in [3], in [4], in [5] and in assay [6] was over 100 µM throughout. The TGI in assay [7], in [8], in assay [9], in assay [10], in assay [11] and in [12] was over 100 µM in each case. For the same compound, the TGI in assay [13], in [14], in [15], in [16], in assay [17] and in assay [18] was over 100 µM throughout. In [19], the TGI was over 100 µM.
Consider `CN1CCc2c3n(c4cc(Br)ccc24)[C@H](O)CCCC31` (some centres undefined), for which the TGI in [1] is 3.47 µM; in [2], 5.61 µM; in [3], 3.24 µM; in [4] it was over 10 µM; in assay [5], 3.01 µM; in assay [6], over 10 µM. The TGI is 3.19 µM in [7]; over 8.72 µM in [8]; over 10 µM in assay [9]; over 10 µM in assay [10]; over 7.44 µM in [11]; over 7.17 µM in [12]. Besides, the TGI in assay [13] is over 5.77 µM; in assay [14], 3.29 µM; in [15], over 10 µM; in [16] it was 3.27 µM; in [17], over 10 µM; in assay [18] it was over 10 µM. Moreover, the TGI in assay [19] was over 10 µM.
As for `CCCCCC(C/C=N/N(C)C)C(O)(C(F)(F)F)C(F)(F)F` (centres undefined), the TGI in [1] is over 100 µM; in [3] it was 30.5 µM; in [4], over 100 µM; in assay [5], over 100 µM; in assay [6], over 100 µM; in [7], over 100 µM. In addition, the TGI in assay [8] is 30.7 µM; in assay [9] it was over 100 µM; in [10], 74.5 µM; in assay [11], over 100 µM; in [12], over 100 µM; in assay [13], over 100 µM. In addition, the TGI in [14] was over 100 µM; in assay [15] it was 56 µM; in [16], over 100 µM; in assay [17], over 100 µM; in assay [18], over 100 µM; in assay [19], over 100 µM.
With `COC(=O)C1=C(C)NC(C)=C(C(=O)OC)C1c1ccccc1NO`, the TGI in assay [1], in [2], in assay [3], in assay [4], in assay [5] and in [6] was over 100 µM throughout. The TGI in assay [7], in [8], in assay [9], in [10], in assay [11] and in assay [12] was over 100 µM in each case. The TGI in assay [13], in [14], in [15], in assay [16], in [17] and in assay [18] was over 100 µM throughout. This compound also showed a TGI in assay [19] of over 100 µM.
For the compound `S=c1nc(N2CCCCC2)c2cn[nH]c2[nH]1`, the TGI in assay [1] was over 100 µM; in assay [2], over 100 µM; in [3] it was over 100 µM; in assay [4] it was over 100 µM; in assay [5] it was 41.4 µM; in [6], over 100 µM. Also, the TGI in assay [7] was over 100 µM; in assay [8], over 100 µM; in assay [9], over 100 µM; in assay [10] it was 56.5 µM; in assay [11] it was over 100 µM; in [12], over 100 µM. The TGI in [13], in [14], in assay [15], in assay [16], in [17] and in assay [18] was over 100 µM in each case. This compound displayed a TGI in [19] of over 100 µM.
In the case of `CN(C)CCCNC(=O)c1c(O)c2ccccc2[nH]c1=O`, the TGI in assay [1], in assay [2], in assay [3], in assay [4], in [5] and in [6] was over 100 µM throughout. For the same compound, the TGI in assay [7], in assay [8], in assay [9], in [10], in assay [11] and in assay [12] was over 100 µM throughout. The TGI in assay [13], in [14], in assay [15], in [16], in assay [17] and in assay [18] was over 100 µM in each case. In assay [19], this compound returned a TGI of over 100 µM.
As to `COc1ccc(/C=C2\CCC(CNc3ccc(S(N)(=O)=O)cc3)C2=O)cc1` (centres undefined), the TGI in [1] stood at 19.3 µM; in [2], 40.2 µM; in [3], 34.4 µM; in assay [4], 54.4 µM; in [5] it was 10.6 µM; in assay [6], 42.6 µM. The TGI in [7] was 34.7 µM; in [8] it was 31.8 µM; in assay [9], 34.9 µM; in [10] it was 43.4 µM; in assay [11], over 81.2 µM; in assay [12] it was 19.3 µM. In addition, the TGI in assay [13] is 18.2 µM; in [14], 23.8 µM; in assay [15] it was over 86 µM; in [16], 41.3 µM; in assay [17], over 100 µM; in assay [18], 43.1 µM. The TGI in assay [19] is over 69.2 µM.
With `OCCOCCN1CCN(CCCN2c3ccccc3Sc3ccc(C(F)(F)F)cc32)CC1`, the TGI in assay [1] was determined as 29.6 µM; in [2] it was 18.3 µM; in assay [3], 3.57 µM; in [4], 33.1 µM; in [5], 28.2 µM; in assay [6], 27.3 µM. Further, the TGI was determined as 9.55 µM in assay [7]; 13.8 µM in assay [8]; 24.1 µM in assay [9]; 22.2 µM in assay [10]; 30.2 µM in [11]; 30.5 µM in [12]. Besides, the TGI in assay [13] is 38.3 µM; in assay [14], 15.1 µM; in assay [15], 22.6 µM; in assay [16] it was 23.8 µM; in assay [17], 37.2 µM; in assay [18], 2.48 µM. For the same compound, in [19], the TGI was found to be 29.2 µM.
As for `Cc1ccc(C2=Nn3c(nc4sc(C)c(C)c4c3=O)SC2)cc1`, the TGI in assay [1], in assay [2], in assay [3], in assay [4], in [5] and in [6] was over 100 µM throughout. Besides, the TGI in assay [7] is over 100 µM; in [8], over 100 µM; in assay [9] it was 85.3 µM; in [10] it was over 100 µM; in assay [11] it was over 100 µM; in assay [12], over 100 µM. Moreover, the TGI in assay [13], in assay [14], in [15], in assay [16], in assay [17] and in assay [18] was over 100 µM throughout. Besides, the TGI in [19] is over 100 µM.
As to `CC(Cc1ccccc1)Nc1ncnc2c1ncn2C1OC(CO)CC1O` (centres undefined), the TGI in [1], in assay [2], in [3], in assay [4], in assay [5] and in [6] was over 100 µM in each case. Moreover, the TGI in assay [7], in [8], in assay [9], in assay [10], in assay [11] and in assay [12] was over 100 µM in each case. For the same compound, the TGI in [13], in assay [14], in [15], in [16], in assay [17] and in assay [18] was over 100 µM each time. In [19], this compound displayed a TGI of over 100 µM.
`O=[N+]([O-])c1c(F)c(F)c2c(c1F)Nc1ccccc1S2`: the TGI in assay [1] worked out at 6.28 µM; in assay [2], 19.8 µM; in assay [3], 27.3 µM; in [4] it was 6 µM; in assay [5], 10.9 µM; in assay [6] it was 26.5 µM. In addition, the TGI turned out to be 5.74 µM in assay [7]; 23.8 µM in [8]; 38.4 µM in [9]; 8.64 µM in assay [10]; 6.59 µM in [11]; 8.24 µM in [12]. Besides, the TGI came to 12.6 µM in assay [13]; 3.39 µM in assay [14]; 30.4 µM in assay [15]; 14.4 µM in [16]; 35.2 µM in [17]; 12.1 µM in assay [18]. Further, in [19], the TGI stood at 16 µM.
